# Values quoted from earlier work as cited in patent publication US20120093928A1, “ORAL METAXALONE COMPOSITIONS” (RANBAXY LABORATORIES LIMITED, priority 2007, published 2012).
structure (smiles),measurement,setting,value
"Cc1cc(C)cc(OCC2CNC(=O)O2)c1 (centres unmarked) [metaxalone, 5-[(3,5-dimethyphenoxy)methyl]-2-oxazolidinone]",plasma half-life,in vivo,2 to 3 h
same,time to mean peak plasma concentrations,"oral, single 800 mg dosage",2 h
